Results from ChEMBL document CHEMBL4414582, “Lathyrane, Premyrsinane, and Related Diterpenes from Euphorbia boetica: Effect on in Vitro Neural Progenitor Cell Proliferation” (J Nat Prod, 2019).
The source made the active and inactive calls. The calls are words filed in the database; no cut-off is given here.

Assays:
[1] = Effect on self-renewal capacity in mouse neurospheres derived neural precursor cells assessed as neurosphere number at 1 to 10 uM after 72 hrs in presence of bFGF by phase contrast microscopic based analysis; format: ADME
[2] = Effect on self renewal capacity in mouse neurospheres derived neural precursor cells assessed as neurosphere number at 1 to 10 uM after 72 hrs in presence of EGF and bFGF by phase contrast microscopic based analysis; format: ADME
Mus musculus [3] = species on record: Mus musculus; test: Activation of PKC in mouse neurospheres derived neural precursor cells assessed as increase in cell proliferation by measuring increase in neurosphere area at 5 uM after 72 hrs in presence of EGF and bFGF by phase contrast microscopic based analysis
[4] = Effect on self-renewal capacity in mouse neurospheres derived neural precursor cells assessed as neurosphere number at 1 to 10 uM after 72 hrs in presence of EGF by phase contrast microscopic based analysis; format: ADME
[5] = Effect on cell viability in mouse neurospheres derived neural precursor cells assessed as neurosphere number at 1 to 10 uM after 72 hrs in presence of bFGF and EGF by phase contrast microscopic based analysis
[6] = Effect on cell viability in mouse neurospheres derived neural precursor cells assessed as neurosphere number at 1 to 10 uM after 72 hrs in presence of bFGF by phase contrast microscopic based analysis
[7] = Effect on cell viability in mouse neurospheres derived neural precursor cells assessed as neurosphere number at 1 to 10 uM after 72 hrs in presence of EGF by phase contrast microscopic based analysis
Mus musculus [8] = species on record: Mus musculus; test: Activation of PKC in mouse neurospheres derived neural precursor cells assessed as increase in cell proliferation by measuring increase in neurosphere size at 5 to 10 uM after 72 hrs in presence of EGF and bFGF by phase contrast microscopic based analysis
Mus musculus [9] = species on record: Mus musculus; test: Activation of PKC in mouse neurospheres derived neural precursor cells assessed as cell proliferation by measuring neurosphere size at 1 uM after 72 hrs in presence of EGF and bFGF by phase contrast microscopic based analysis
Mus musculus [10] = species on record: Mus musculus; test: Activation of PKC in mouse neurospheres derived neural precursor cells assessed as cell proliferation by measuring neurosphere size at 1 to 10 uM after 72 hrs in presence of EGF by phase contrast microscopic based analysis
Mus musculus [11] = species on record: Mus musculus; test: Activation of PKC in mouse neurospheres derived neural precursor cells assessed as increase in cell proliferation by measuring increase in neurosphere size after 72 hrs in presence of EGF and bFGF by phase contrast microscopic based analysis
Mus musculus [12] = species on record: Mus musculus; test: Activation of PKC in mouse neurospheres derived neural precursor cells assessed as cell proliferation by measuring neurosphere size at 1 to 10 uM after 72 hrs in presence of bFGF by phase contrast microscopic based analysis

Row | Activity (Mus musculus [3]) | Activity (Mus musculus [8]) | Activity (Mus musculus [9]) | Activity (Mus musculus [10]) | Activity (Mus musculus [11]) | Activity (Mus musculus [12]) | SMILES | Activity [1] | Activity [2] | Activity [4] | Activity [5] | Activity [6] | Activity [7]
1 | Active |  |  |  |  |  | C=C1CC[C@H]2[C@@H](/C=C(\C)C(=O)[C@@]3(OC(C)=O)C[C@H](C)[C@H](OC(C)=O)[C@@H]3[C@H]1OC(C)=O)C2(C)C | Non-Toxic | Non-Toxic | Non-Toxic | Non-Toxic | Non-Toxic | Non-Toxic
2 |  | Active | inactive | inactive | Dose-dependent effect | inactive | CC(=O)O[C@@H]1[C@@H]2[C@@H](OC(C)=O)[C@]3(CC[C@H]4[C@@H](/C=C(\C)C(=O)[C@@]2(OC(C)=O)C[C@@H]1C)C4(C)C)CO3 | Non-Toxic | Non-Toxic | Non-Toxic | Non-Toxic | Non-Toxic | Non-Toxic
